From patent US20090093454A1, “Chemical Compounds” (priority 2005, published 2009)
Where a name gives a salt, the structure may show the parent alone.

tested on: HIV-1 gp160 (HXB2 strain) HEK-293 cells fusing with HOS (hCXCR4/hCCR5/hCD4/pHIV-LTR-luciferase) cells; assay: Cell/cell fusion assay (luciferase); format: cell-based; conditions: Homo sapiens, HEK (tat/rev/gp160 HXB2) + HOS cells, 24 h, read-out: Fusion assay (pIC50) (converted)
Source text: The complete coding sequences of HIV-1 tat (GenBank Accession No. X07861) and rev (GenBank Accession No. M34378) were cloned into pcDNA3.1 expression vectors containing G418 and hygromycin resistance genes, respectively. The complete coding sequence of the HIV-1 (HXB2 strain) gp160 envelope gene (nucleotide bases 6225-8795 of GenBank Accession No. K03455) was cloned into plasmid pCRII-TOPO. The three HIV genes were additionally inserted into the baculovirus shuttle vector, pFastBacMam1, under the transcriptional control of the CMV promoter. A construction of the pHIV-I LTR containing mutated NFkB sequences linked to the luciferase reporter gene was prepared by digesting pcDNA3.1, containing the G418 resistance gene, with Nru I and Bam HI to remove the CMV promoter. LTR-luc was then cloned into the Nru I/Bam HI sites of the plasmid vector. Plasmid preparations were performed after the plasmids were amplified in Escherichia coli strain DH5-alpha. The fidelity of the inserted sequences was confirmed by double-strand nucleotide sequencing using an ABI Prism Model 377 automated sequencer.
Recombinant BacMam baculoviruses were constructed from pFastBacMam shuttle plasmids by using the bacterial cell-based Bac-to-Bac system. Viruses were propagated in Sf9 (Spodoptera frugiperda) cells cultured in Hink's TNM-FH Insect media supplemented with 10% (v/v) fetal bovine serum and 0.1% (v/v) pluronic F-68 according to established protocols.
Human osteosarcoma (HOS) cells that naturally express human CXCR4 were transfected with human CCR5, human CD4 and the pHIV-LTR-luciferase plasmid using FuGENE 6 transfection reagent. Single cells were isolated and grown under selection condition in order to generate a stable HOS (hCXCR4/hCCR5/hCD4/pHIV-LTR-luciferase) clonal cell line. The cells were maintained in Dulbeccos modified Eagles media supplemented with 10% fetal calf serum (FCS), G418 (400 ug/ml), puromycin (1 ug/ml), mycophenolic acid (40 ug/ml), xanthine (250 ug/ml) and hypoxanthine (13.5 ug/ml) to maintain a selection pressure for cells expressing the LTR-luciferase, hCCR5 and hCD4, respectively. Human embryonic kidney (HEK-293) cells stably transfected to express the human macrophage scavenging receptor (Class A, type 1; GenBank Accession No. D90187), were maintained in DMEM/F-12 media (1:1) supplemented with 10% FCS and 1.5 ug/ml puromycin. The expression of this receptor by the HEK-293 cells enhances their ability to stick to tissue culture treated plasticware.
HEK-293 cells were harvested using enzyme-free cell dissociation buffer. The cells were resuspended in DMEM/F-12 media supplemented with 10% FCS and 1.5 ug/ml and counted. Tranductions were performed by direct addition of BacMam baculovirus containing insect cell media to cells. The cells were simultaneously transduced with BacMam baculovirus expressing HIV-1 tat, HIV-1 rev and HIV-1 gp160 (from the HXB2 HIV strain). Routinely an MOI of 10 of each virus was added to the media containing the cells. 2 mM butyric acid was also added to the cells at this stage to increase protein expression in transduced cells. The cells were subsequently mixed and seeded into a flask at 30 million cells per T225. The cells were incubated at 37° C., 5% CO2, 95% humidity for 24 h to allow for protein expression.
HEK and HOS cells were harvested in DMEM/F-12 media containing 2% FCS and DMEM media containing 2% FCS, respectively, with no selection agents added. Compounds were plated as 1 ul spots in 100% DMSO on a 96-well CulturPlate plates. HOS cells (50 ul) were added first to the wells, followed immediately by the HEK cells (50 ul). The final concentration of each cell type was 20,000 cells per well. Following these additions, the cells were returned to a tissue culture incubator (37° C.; 5% CO2/95% air) for an additional 24 h.
Following the 24 h incubation, total cellular luciferase activity was measured using the LucLite Plus assay kit (Packard, Meridien, Conn.). […]

| Compound | IC50 |
| --- | --- |
| c1cnc2c(c1)CC[C@H]1CCCN(Cc3nc4ccccc4[nH]3)[C@H]21 (racemic) [Example 6, (trans)-1-(1H-Benzimidazol-2-ylmethyl)-1,2,3,4,4a,5,6,10b-octahydro-1,10-phenanthroline] | 1120 nM |
| c1cnc2c(c1)CC[C@@H]1CCCN(Cc3nc4ccccc4[nH]3)[C@H]21 (racemic) [Example 7, (cis)-1-(1H-Benzimidazol-2-ylmethyl)-1,2,3,4,4a,5,6,10b-octahydro-1,10-phenanthroline] | 3160 nM |
| NCCCn1c(CN2CCC[C@@H]3CCc4cccnc4[C@H]32)nc2ccccc21 (racemic) [Example 8, (trans)-3-[2-(3,4,4a,5,6,10b-Hexahydro-1,10-phenanthrolin-1(2H)-ylmethyl)-1H-benzimidazol-1-yl]-1-propanamine] | 490 nM |
| NCCCn1c(CN2CCC[C@H]3CCc4cccnc4[C@H]32)nc2ccccc21 (racemic) [Example 9, (cis)-3-[2-(3,4,4a,5,6,10b-Hexahydro-1,10-phenanthrolin-1(2H)-ylmethyl)-1H-benzimidazol-1-yl]-1-propanamine] | 89.1 nM |
| c1cnc2c(c1)CC[C@@H]1CCCN(Cc3nc4ccccc4n3Cc3ccncc3)[C@H]21 (racemic) [Example 12, (cis)-1-{[1-(4-Pyridinylmethyl)-1H-benzimidazol-2-yl]methyl}-1,2,3,4,4a,5,6,10b-octahydro-1,10-phenanthroline] | 7940 nM |
| CN1CCCC(Cn2c(CN3CCC[C@H]4CCc5cccnc5[C@H]43)nc3ccccc32)C1 (mixture of isomers) [Example 13, (cis)-1-({1-[(1-Methyl-3-piperidinyl)methyl]-1H-benzimidazol-2-yl}methyl)-1,2,3,4,4a,5,6,10b-octahydro-1,10-phenanthroline] | 31.6 nM |
| CN1CCN(c2cccc3nc(CN4CCC[C@@H]5CCc6cccnc6[C@H]54)cn23)CC1 (racemic) [Example 15A, (trans)-1-{[5-(4-Methyl-1-piperazinyl)imidazo[1,2-a]pyridin-2-yl]methyl}-1,2,3,4,4a,5,6,10b-octahydro-1,10-phenanthroline] | 77.6 nM |
| CN1CCN(c2cccc3nc(CN4CCC[C@H]5CCc6cccnc6[C@H]54)cn23)CC1 (racemic) [Example 15B, (cis)-1-{[5-(4-Methyl-1-piperazinyl)imidazo[1,2-a]pyridin-2-yl]methyl}-1,2,3,4,4a,5,6,10b-octahydro-1,10-phenanthroline] | 5.5 nM |
| CN1CCN(c2cccc3[nH]c(CN4CCC[C@@H]5CCc6cccnc6[C@H]54)nc23)CC1 (racemic) [Example 32, (trans)-1-{[4-(4-Methyl-1-piperazinyl)-1H-benzimidazol-2-yl]methyl}-1,2,3,4,4a,5,6,10b-octahydro-1,10-phenanthroline trifluoroacetate] | 200 nM |
| CN1CCN(c2cccc3nc(CN4CCC[C@H]5CCc6cccnc6[C@H]54)[nH]c23)CC1 (racemic) [Example 33, (cis)-1-{[4-(4-Methyl-1-piperazinyl)-1H-benzimidazol-2-yl]methyl}-1,2,3,4,4a,5,6,10b-octahydro-1,10-phenanthroline] | 0.398 nM |
| CN(C)CCCn1c(CN2CCC[C@H]3CCc4cccnc4[C@@H]32)nc2ccccc21 (stereo in doubt) [Example 10A, (3-{2-[(4aR,10bR)-3,4,4a,5,6,10b-Hexahydro-1,10-phenanthrolin-1(2H)-ylmethyl]-1H-benzimidazol-1-yl}propyl)dimethylamine] | 417 nM |
| CN(C)CCCn1c(CN2CCC[C@@H]3CCc4cccnc4[C@H]32)nc2ccccc21 (stereo in doubt) [Example 10B, (3-{2-[(4aS,10bS)-3,4,4a,5,6,10b-Hexahydro-1,10-phenanthrolin-1(2H)-ylmethyl]-1H-benzimidazol-1-yl}propyl)dimethylamine] | 200 nM |
| CN(C)CCCn1c(CN2CCC[C@@H]3CCc4cccnc4[C@@H]32)nc2ccccc21 [Example 11A, (3-{2-[(4aS,10bR)-3,4,4a,5,6,10b-Hexahydro-1,10-phenanthrolin-1(2H)-ylmethyl]-1H-benzimidazol-1-yl}propyl)dimethylamine] | 1260 nM |
| CN(C)CCCn1c(CN2CCC[C@H]3CCc4cccnc4[C@H]32)nc2ccccc21 [Example 11B, (3-{2-[(4aR,10bS)-3,4,4a,5,6,10b-Hexahydro-1,10-phenanthrolin-1(2H)-ylmethyl]-1H-benzimidazol-1-yl}propyl)dimethylamine] | 25.1 nM |
| CN1CCN(c2cccc3nc(CN4CCC[C@@H]5CCc6cccnc6[C@@H]54)cn23)CC1 [Example 22, (4aS,10bR)-1-{[5-(4-Methyl-1-piperazinyl)imidazo[1,2-a]pyridin-2-yl]methyl}-1,2,3,4,4a,5,6,10b-octahydro-1,10-phenanthroline] | 158 nM |
| CN1CCN(c2cccc3nc(CN4CCC[C@H]5CCc6cccnc6[C@H]54)cn23)CC1 [Example 27, (4aR,10bS)-1-{[5-(4-Methyl-1-piperazinyl)imidazo[1,2-a]pyridin-2-yl]methyl}-1,2,3,4,4a,5,6,10b-octahydro-1,10-phenanthroline] | 1.26 nM |
